In PubChem BioAssay (NCI):
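Step 1: Grow cells in 96-well plates. Step 2: Expose to compound for 48 hours at 5 concentrations. Step 3: Interpolate endpoints linearly; if unreached, use highest concentration. TGI is the concentration that stops growth completely.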

Columns and labels:
Test in all cases: NCI anticancer screen, dose series, 48 h
SK-MEL-5 melanoma = test system: SK-MEL-5 melanoma
U251 CNS = test system: U251 CNS
ACHN renal = test system: ACHN renal
CCRF-CEM leukemia = test system: CCRF-CEM leukemia
NCI-H23 lung = test system: NCI-H23 lung
NCI-H522 lung = test system: NCI-H522 lung
OVCAR-4 ovarian = test system: OVCAR-4 ovarian
SNB-75 CNS = test system: SNB-75 CNS
HCT-15 colon = test system: HCT-15 colon
RPMI-8226 leukemia = test system: RPMI-8226 leukemia
HOP-62 NSCLC = test system: HOP-62 NSCLC
SW-620 colon = test system: SW-620 colon
UACC-257 melanoma = test system: UACC-257 melanoma
SNB-78 CNS = test system: SNB-78 CNS
SNB-19 CNS = test system: SNB-19 CNS
HT29 colon = test system: HT29 colon
A549 NSCLC = test system: A549 NSCLC
786-0 renal = test system: 786-0 renal
MALME-3M melanoma = test system: MALME-3M melanoma
UACC-62 melanoma = test system: UACC-62 melanoma
IGROV1 ovarian = test system: IGROV1 ovarian
RXF-631 renal = test system: RXF-631 renal
SF-268 CNS = test system: SF-268 CNS
OVCAR-3 ovarian = test system: OVCAR-3 ovarian
SK-MEL-28 melanoma = test system: SK-MEL-28 melanoma
M14 melanoma = test system: M14 melanoma
DLD-1 colon = test system: DLD-1 colon
KM12 colon = test system: KM12 colon
UO-31 renal = test system: UO-31 renal
HCT-116 colon = test system: HCT-116 colon
HOP-92 NSCLC = test system: HOP-92 NSCLC
EKVX NSCLC = test system: EKVX NSCLC
NCI-H460 lung = test system: NCI-H460 lung
NCI-H226 lung = test system: NCI-H226 lung
HCC-2998 colon = test system: HCC-2998 colon
RXF 393 renal = test system: RXF 393 renal
COLO 205 colon = test system: COLO 205 colon
M19-MEL melanoma = test system: M19-MEL melanoma
SK-MEL-2 melanoma = test system: SK-MEL-2 melanoma
SN12C renal = test system: SN12C renal
HL-60(TB) leukemia = test system: HL-60(TB) leukemia
TK-10 renal = test system: TK-10 renal
XF 498 CNS = test system: XF 498 CNS
HOP-18 NSCLC = test system: HOP-18 NSCLC
LXFL 529 NSCLC = test system: LXFL 529 NSCLC
KM20L2 colon = test system: KM20L2 colon
SK-OV-3 ovarian = test system: SK-OV-3 ovarian
SF-539 CNS = test system: SF-539 CNS
LOX IMVI melanoma = test system: LOX IMVI melanoma
SF-295 CNS = test system: SF-295 CNS
A498 renal = test system: A498 renal
OVCAR-8 ovarian = test system: OVCAR-8 ovarian
DMS 114 small cell lung = test system: DMS 114 small cell lung
OVCAR-5 ovarian = test system: OVCAR-5 ovarian
CAKI-1 renal = test system: CAKI-1 renal
SR leukemia = test system: SR leukemia
MOLT-4 leukemia = test system: MOLT-4 leukemia

Measured: TGI

CCCCCCCCCCCCCC(=O)NCO
not listed: CAKI-1 renal | SR leukemia | MOLT-4 leukemia
> 100 µM: all other assays above

N#CNC(=NCCO)NCCO
not listed: SK-MEL-5 melanoma | NCI-H23 lung | 786-0 renal | HOP-92 NSCLC | RXF 393 renal | TK-10 renal
> 100 µM: all other assays above
